Key:
Test in all cases: relative viability (nuclei count vs DMSO), 5 days (fraction); higher = more cells survive
ABC-1 = system: ABC-1
Method in brief: (§1)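 Relative viability was taken as the ratio of nuclei in treated wells to nuclei in vehicle wells. Lung cancer cell lines in 1536-well plates received compounds by pin tool one day after seeding, either one drug alone or a fixed anchor-drug dose plus five library-drug doses (not always all listed) in √10 steps. Nuclei were counted on 4× images after 5 days of treatment, and values are medians of duplicate plates.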

COR-L23 = system: COR-L23
Method in brief: as §1

EPLC-272H = system: EPLC-272H
Method in brief: as §1

HARA = system: HARA
Method in brief: as §1

HCC-15 = system: HCC-15
Method in brief: as §1

HCC-44 = system: HCC-44
Method in brief: as §1

HOP-62 = system: HOP-62
Method in brief: as §1

LC-2-ad = system: LC-2-ad
Method in brief: as §1

LU99A = system: LU99A
Method in brief: as §1

NCI-H1355 = system: NCI-H1355
Method in brief: as §1

NCI-H1651 = system: NCI-H1651
Method in brief: as §1

NCI-H1915 = system: NCI-H1915
Method in brief: as §1

NCI-H1993 = system: NCI-H1993
Method in brief: as §1

NCI-H2023 = system: NCI-H2023
Method in brief: as §1

NCI-H2085 = system: NCI-H2085
Method in brief: as §1

NCI-H2126 = system: NCI-H2126
Method in brief: as §1

NCI-H2347 = system: NCI-H2347
Method in brief: as §1

NCI-H358 = system: NCI-H358
Method in brief: as §1

NCI-H650 = system: NCI-H650
Method in brief: as §1

NCI-H838 = system: NCI-H838
Method in brief: as §1

PC-14 = system: PC-14
Method in brief: as §1

SW 1573 = system: SW 1573
Method in brief: as §1

UMC-11 = system: UMC-11
Method in brief: as §1

For CCN(CC)CCCCNc1ncc2cc(-c3cc(OC)cc(OC)c3)c(NC(=O)NC(C)(C)C)nc2n1 + CS(=O)(=O)CCNCc1ccc(-c2ccc3ncnc(Nc4ccc(OCc5cccc(F)c5)c(Cl)c4)c3c2)o1 [Lapatinib] (partner 2 µM), the relative viability (ABC-1; first compound 0.01 µM) was 1.33, the relative viability (ABC-1; first compound 0.03162 µM) was 1.11 and the relative viability (ABC-1; first compound 0.1 µM) was 1.22. For the same molecule, the relative viability (ABC-1; first compound 0.3162 µM) was 1.34, the relative viability (ABC-1; first compound 1 µM) was 1.22 and the relative viability (COR-L23; first compound 0.01 µM) was 1.09. The relative viability (COR-L23; first compound 0.03162 µM) was 0.973, the relative viability (COR-L23; first compound 0.1 µM) was 0.943 and the relative viability (COR-L23; first compound 0.3162 µM) was 1.19. For the same molecule, the relative viability (COR-L23; first compound 1 µM) was 0.881, the relative viability (EPLC-272H; first compound 0.01 µM) was 1.05 and the relative viability (EPLC-272H; first compound 0.1 µM) was 0.956. For the same molecule, the relative viability (EPLC-272H; first compound 0.3162 µM) was 0.922, the relative viability (EPLC-272H; first compound 1 µM) was 0.642 and the relative viability (HARA; first compound 0.01 µM) was 0.833. The relative viability (HARA; first compound 0.03162 µM) was 0.469, the relative viability (HARA; first compound 0.1 µM) was 0.764 and the relative viability (HARA; first compound 0.3162 µM) was 0.581. The relative viability (HARA; first compound 1 µM) was 0.227, the relative viability (HCC-15; first compound 0.01 µM) was 0.871 and the relative viability (HCC-15; first compound 0.03162 µM) was 0.944. The relative viability (HCC-15; first compound 0.1 µM) was 0.83, the relative viability (HCC-15; first compound 0.3162 µM) was 1.07 and the relative viability (HCC-15; first compound 1 µM) was 0.779. For the same molecule, the relative viability (HCC-44; first compound 0.01 µM) was 1.07, the relative viability (HCC-44; first compound 0.03162 µM) was 1.05 and the relative viability (HCC-44; first compound 0.1 µM) was 1.26. It also gave a relative viability (HCC-44; first compound 0.3162 µM) of 1.28, a relative viability (HCC-44; first compound 1 µM) of 0.865 and a relative viability (HOP-62; first compound 0.01 µM) of 1.01. It also gave a relative viability (HOP-62; first compound 0.03162 µM) of 1.16, a relative viability (HOP-62; first compound 0.1 µM) of 1.19 and a relative viability (HOP-62; first compound 0.3162 µM) of 1.09. For the same molecule, the relative viability (HOP-62; first compound 1 µM) was 1.33, the relative viability (LC-2-ad; first compound 0.01 µM) was 1.05 and the relative viability (LC-2-ad; first compound 0.03162 µM) was 1. It also gave a relative viability (LC-2-ad; first compound 0.1 µM) of 1.22, a relative viability (LC-2-ad; first compound 0.3162 µM) of 1.12 and a relative viability (LC-2-ad; first compound 1 µM) of 0.917. For the same molecule, the relative viability (LU99A; first compound 0.01 µM) was 0.946, the relative viability (LU99A; first compound 0.03162 µM) was 0.924 and the relative viability (LU99A; first compound 0.1 µM) was 1.17. For the same molecule, the relative viability (LU99A; first compound 0.3162 µM) was 1.14, the relative viability (LU99A; first compound 1 µM) was 0.93 and the relative viability (NCI-H1355; first compound 0.01 µM) was 1. For the same molecule, the relative viability (NCI-H1355; first compound 0.03162 µM) was 0.897, the relative viability (NCI-H1355; first compound 0.1 µM) was 1.2 and the relative viability (NCI-H1355; first compound 0.3162 µM) was 1.19. The relative viability (NCI-H1355; first compound 1 µM) was 0.924, the relative viability (NCI-H1651; first compound 0.01 µM) was 0.896 and the relative viability (NCI-H1651; first compound 0.03162 µM) was 1.03. The relative viability (NCI-H1651; first compound 0.1 µM) was 1.18, the relative viability (NCI-H1651; first compound 0.3162 µM) was 0.844 and the relative viability (NCI-H1651; first compound 1 µM) was 0.554. It also gave a relative viability (NCI-H1915; first compound 0.01 µM) of 1.1, a relative viability (NCI-H1915; first compound 0.03162 µM) of 1.03 and a relative viability (NCI-H1915; first compound 0.1 µM) of 0.775. It also gave a relative viability (NCI-H1915; first compound 0.3162 µM) of 1.1, a relative viability (NCI-H1915; first compound 1 µM) of 0.971 and a relative viability (NCI-H1993; first compound 0.01 µM) of 0.85. The relative viability (NCI-H1993; first compound 0.03162 µM) was 0.719, the relative viability (NCI-H1993; first compound 0.1 µM) was 0.774 and the relative viability (NCI-H1993; first compound 0.3162 µM) was 0.785. The relative viability (NCI-H1993; first compound 1 µM) was 0.738, the relative viability (NCI-H2023; first compound 0.01 µM) was 0.748 and the relative viability (NCI-H2023; first compound 0.03162 µM) was 0.94. It also gave a relative viability (NCI-H2023; first compound 0.1 µM) of 1.17, a relative viability (NCI-H2023; first compound 0.3162 µM) of 0.919 and a relative viability (NCI-H2023; first compound 1 µM) of 0.798. For the same molecule, the relative viability (NCI-H2085; first compound 0.01 µM) was 0.791, the relative viability (NCI-H2085; first compound 0.03162 µM) was 0.691 and the relative viability (NCI-H2085; first compound 0.1 µM) was 0.828. It also gave a relative viability (NCI-H2085; first compound 0.3162 µM) of 0.85, a relative viability (NCI-H2085; first compound 1 µM) of 0.68 and a relative viability (NCI-H2126; first compound 0.01 µM) of 0.786. The relative viability (NCI-H2126; first compound 0.03162 µM) was 0.72, the relative viability (NCI-H2126; first compound 0.1 µM) was 0.796 and the relative viability (NCI-H2126; first compound 0.3162 µM) was 0.808. For the same molecule, the relative viability (NCI-H2126; first compound 1 µM) was 0.726, the relative viability (NCI-H2347; first compound 0.01 µM) was 0.923 and the relative viability (NCI-H2347; first compound 0.03162 µM) was 0.79. The relative viability (NCI-H2347; first compound 0.1 µM) was 1.06, the relative viability (NCI-H2347; first compound 0.3162 µM) was 0.878 and the relative viability (NCI-H2347; first compound 1 µM) was 0.931. For the same molecule, the relative viability (NCI-H358; first compound 0.01 µM) was 0.449, the relative viability (NCI-H358; first compound 0.03162 µM) was 0.484 and the relative viability (NCI-H358; first compound 0.1 µM) was 0.457. For the same molecule, the relative viability (NCI-H358; first compound 0.3162 µM) was 0.498, the relative viability (NCI-H358; first compound 1 µM) was 0.406 and the relative viability (NCI-H650; first compound 0.01 µM) was 0.988. The relative viability (NCI-H650; first compound 0.03162 µM) was 0.944, the relative viability (NCI-H650; first compound 0.1 µM) was 1.06 and the relative viability (NCI-H650; first compound 0.3162 µM) was 1.18. The relative viability (NCI-H650; first compound 1 µM) was 0.734, the relative viability (NCI-H838; first compound 0.01 µM) was 0.865 and the relative viability (NCI-H838; first compound 0.03162 µM) was 0.993. It also gave a relative viability (NCI-H838; first compound 0.1 µM) of 1.2, a relative viability (NCI-H838; first compound 0.3162 µM) of 0.969 and a relative viability (NCI-H838; first compound 1 µM) of 0.563. For the same molecule, the relative viability (PC-14; first compound 0.01 µM) was 0.318, the relative viability (PC-14; first compound 0.03162 µM) was 0.373 and the relative viability (PC-14; first compound 0.1 µM) was 0.391. For the same molecule, the relative viability (PC-14; first compound 0.3162 µM) was 0.362, the relative viability (PC-14; first compound 1 µM) was 0.237 and the relative viability (SW 1573; first compound 0.01 µM) was 1.11. For the same molecule, the relative viability (SW 1573; first compound 0.03162 µM) was 1.1, the relative viability (SW 1573; first compound 0.1 µM) was 1.19 and the relative viability (SW 1573; first compound 0.3162 µM) was 0.978. It also gave a relative viability (SW 1573; first compound 1 µM) of 1.12, a relative viability (UMC-11; first compound 0.01 µM) of 1.18 and a relative viability (UMC-11; first compound 0.03162 µM) of 1.04. For the same molecule, the relative viability (UMC-11; first compound 0.1 µM) was 1.1, the relative viability (UMC-11; first compound 0.3162 µM) was 1.11 and the relative viability (UMC-11; first compound 1 µM) was 0.94.

Reference: the supplement of paper PMC10307832
